Assay [1] has as its target T1, α-glucosidase (Saccharomyces cerevisiae, UniProt P53341).
T1 construct: purchased Sigma-Aldrich (Shanghai, China) G5003-100UN
As to the kind of experiment: Affinity ultrafiltration coupled with HPLC (UF-HPLC), specific binding factor. Conditions: peaks of SGR2 (10 mg/mL) incubated with α-glucosidase; active vs denatured enzyme. On the procedure: Affinity UF was performed as previously described, with slight modifications. Briefly, a PBS solution of SGR2 (10 mg/mL, 800 μL) was mixed with α-glucosidase (1 U/mL, 400 μL) and incubated at 37 °C for 45 min. Next, the mixture was centrifuged at 10,000 rpm for 10 min using a UF membrane with a 10 kDa molecular weight cutoff, to collect the active component and α-glucosidase complexes. The complexes were washed 3 times with 600 μL of PBS (0.1 M, pH 7.2) to remove unbound compounds. A solution of 70% methanol (200 μL) was added to the residue and incubated at 4 °C for 20 min to release the bound compounds. Then, the solution was collected and concentrated to a dry state. Subsequently, the dry residue was further dissolved with 0.2 mL methanol and subjected to HPLC analysis. As a negative control, α-glucosidase was inactivated at 100 °C in a water bath for 10 min. […] The specific binding factors were calculated according to Equation (2):Specific binding factor (%) = (Aa − Ab)/Ac × 100%(2) where, Aa is the peak area of the experiment with active α-glucosidase, Ab is the peak area of the control group with denatured α-glucosidase, and Ac is the peak area of the extract.

Assay [2] concerns the target T1, α-glucosidase. Kind of assay: α-glucosidase inhibitory assay (pNPG substrate, absorbance at 405 nm). The format is biochemical. The procedure: The α-glucosidase inhibitory activity of the S. grosvenorii root extracts was determined using a method mentioned previously, with some modifications to it. Briefly, the sample was dissolved in PBS containing 10% dimethyl sulfoxide. A mixture of the tested sample (50 μL, different concentrations) and α-glucosidase (20 μL, 0.2 U/mL) was placed in a 96-well microplate and incubated at 37 °C for 5 min. Next, 20 μL pNPG (1 mM) was added, and the mixture was further reacted for 30 min at 37 °C and terminated through the addition of […] solution (50 μL, […]). The percentage inhibition of α-glucosidase was determined by measuring the absorbance of the mixture at 405 nm and calculated by Equation (1):Inhibition (%) = [1 − (Ainhibitor − Ablank inhibitor)/(Acontrol − Acontrol blank)] × 100(1) where Ainhibitor, Ablank inhibitor, Acontrol, Acontrol blank are the absorbance values of the potential inhibitor and α-glucosidase, only the potential inhibitor without α-glucosidase, only α-glucosidase, and PBS buffer, respectively.

This is an account of results in publication PMC10299727, “Identification and Isolation of α-Glucosidase Inhibitors from Siraitia grosvenorii Roots Using Bio-Affinity Ultrafiltration and Comprehensive Chromatography” (International Journal of Molecular Sciences, 2023).

Several values for one entry are separate records, joined by “and”; a condition that tells them apart may be missing. Equal entries are not always repeated. Where two headings read alike, the source gives them in different places.

T1 sequence (P53341 whole entry): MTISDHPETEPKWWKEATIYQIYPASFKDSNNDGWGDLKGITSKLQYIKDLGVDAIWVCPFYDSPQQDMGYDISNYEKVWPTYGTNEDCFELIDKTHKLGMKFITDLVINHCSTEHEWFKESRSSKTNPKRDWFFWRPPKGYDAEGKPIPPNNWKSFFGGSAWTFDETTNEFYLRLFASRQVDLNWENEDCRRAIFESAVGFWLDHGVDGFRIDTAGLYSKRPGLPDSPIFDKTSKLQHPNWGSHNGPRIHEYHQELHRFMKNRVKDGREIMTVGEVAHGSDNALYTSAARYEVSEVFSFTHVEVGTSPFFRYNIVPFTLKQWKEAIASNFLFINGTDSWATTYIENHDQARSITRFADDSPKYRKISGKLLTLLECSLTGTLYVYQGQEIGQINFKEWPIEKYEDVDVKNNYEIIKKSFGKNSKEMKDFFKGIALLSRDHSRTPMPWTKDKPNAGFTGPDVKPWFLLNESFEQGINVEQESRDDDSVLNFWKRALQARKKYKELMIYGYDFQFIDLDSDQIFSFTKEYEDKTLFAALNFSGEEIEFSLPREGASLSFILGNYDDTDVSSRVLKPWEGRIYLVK

With `COc1cc(C[C@@H]2CO[C@@H](c3ccc(O)c(OC)c3)[C@@H]2CO)ccc1O` [Compound 1, (-)-lariciresinol], the “Specific Binding Factors Mean ± SD (n = 3)” value on α-glucosidase [1] came out at 4.97 ± 0.15%. At α-glucosidase [2], this compound gave an IC50 of 1830 ± 31.3 µM and an inhibition at 1000 µg/mL of 78.2 ± 1.54%.
Consider `COc1cc([C@@H]2Oc3c(OC)cc(/C=C/CO)cc3[C@H]2CO)ccc1O` [Compound 2, 3,4′-dimethoxy-4,9,9′-trihydroxy-benzofuranolignan-7′-ene], for which the “Specific Binding Factors Mean ± SD (n = 3)” value at α-glucosidase [1] worked out at 1.87 ± 0.77%. This compound also showed an inhibition at 1000 µg/mL against α-glucosidase [2] of 63.43 ± 0.23%. For the same compound, the half-maximal inhibitory concentration (IC50) on α-glucosidase [2] (read-out: IC50) was determined as 2275 ± 13.8 µM.
For the compound `CC1=C2CCC3C(C)(C(=O)CC4(C)C(C(C)CC/C=C(\C)C(=O)OC5OC(COC6OC(CO)C(O)C(O)C6O)C(O)C(O)C5O)C(OC5OC(CO)C(O)C(O)C5O)CC34C)C2CCC1=O` (centres unmarked) [Compound 4, Siraitic acid III E], at α-glucosidase [1], the “Specific Binding Factors Mean ± SD (n = 3)” value stood at 2.93 ± 0.72%. At α-glucosidase [2], this compound registered an inhibition at 1000 µg/mL of 36.74 ± 0.36%.
As to `CC1=C2CCC3C(C)(C(=O)CC4(C)C(C(C)CC/C=C(\C)C(=O)OC5OC(CO)C(O)C(O)C5O)C(OC5OC(CO)C(O)C(O)C5O)CC34C)C2CCC1=O` (centres unmarked) [Compound 6, Siraitic acid IIb E], the “Specific Binding Factors Mean ± SD (n = 3)” value on α-glucosidase [1] stood at 3.91 ± 0.17%. The same compound displayed an inhibition at 1000 µg/mL on α-glucosidase [2] of 42.4 ± 0.81%.
Regarding `CC(=CCCC(C)C1C(O)CC2(C)C3CCC4=C(C)C(=O)CCC4C3C(=O)CC12C)C(=O)OC1OC(COC2OC(CO)C(O)C(O)C2O)C(O)C(O)C1O` (centres unmarked) [Compound 7, Siraitic acid II E], the “Specific Binding Factors Mean ± SD (n = 3)” value at α-glucosidase [1] amounted to 3.46 ± 1.03%. On α-glucosidase [2], this compound came in with an inhibition at 1000 µg/mL of 58.5 ± 1.19%. For the same compound, the half-inhibitory concentration (IC50) on α-glucosidase [2] (read-out: IC50) came to 1207 ± 5.49 µM.
Take `C/C(=C\CCC(C)C1CCC2(C)C3CC=C4C(CCC(OC5OC(COC6OC(CO)C(O)C(O)C6O)C(O)C(O)C5O)C4(C)C)C3(C)C(=O)CC12C)C(=O)OC1OC(COC2OC(CO)C(O)C(O)C2O)C(O)C(O)C1O` (centres unmarked) [Compound 8, Siraitic acid IV H]: on α-glucosidase [1], the “Specific Binding Factors Mean ± SD (n = 3)” value was 0.27 ± 0.18%. The same compound yielded an inhibition at 1000 µg/mL against α-glucosidase [2] of 23.4 ± 1.05%.
For the compound `CC(=CCCC(C)C1CCC2(C)C3CCC4=C(C)C(=O)CCC4C3(C)C(=O)CC12C)C(=O)OC1OC(COC2OC(CO)C(O)C(O)C2O)C(O)C(O)C1O` (centres unmarked) [Compound 9, Siraitic acid II G], the “Specific Binding Factors Mean ± SD (n = 3)” value on α-glucosidase [1] is reported as 5.33 ± 2.11%. The inhibition at 1000 µg/mL against α-glucosidase [2] was 53.1 ± 0.99%. Besides, on α-glucosidase [2] (read-out: IC50), the IC50 was 1581 ± 12.5 µM.
For `C/C(=C\CCC(C)C1CCC2(C)C3CCC45OCC3(C(=O)CC12C)C4CCC(O)C5C)C(=O)OC1OC(COC2OC(CO)C(O)C(O)C2O)C(O)C(O)C1O` (centres unmarked) [Compound 11, Siraitic acid II A], the “Specific Binding Factors Mean ± SD (n = 3)” value at α-glucosidase [1] was 6.59 ± 0.91%. 1000 µg/mL produced 50.6 ± 1.23% inhibition against α-glucosidase [2]. Moreover, on α-glucosidase [2] (read-out: IC50), the IC50 is 1240 ± 20.5 µM.
The corresponding values for `C/C(=C\CCC(C)C1CCC2(C)C3CCC45OCC3(C(=O)CC12C)C4CCC(=O)C5C)C(=O)OC1OC(COC2OC(CO)C(O)C(O)C2O)C(O)C(O)C1O` (centres unmarked) [Compound 12, Siraitic acid II B] are 6.65 ± 1.18%, 51.3 ± 0.83% and 1030 ± 36.9 µM.
Consider `CC(=O)OC(C)(C)CCC(=O)[C@](C)(O)C1[C@H](O)C[C@@]2(C)[C@@H]3CC=C4[C@@H](CC(O)[C@@H](O)C4(C)C)[C@]3(C)C(=O)C[C@]12C` (some centres unmarked) [Compound 13, 23,24-dihydrocucurbitacin F-25-acetate], for which, on α-glucosidase [1], the “Specific Binding Factors Mean ± SD (n = 3)” value was found to be 1.31 ± 0.06%. The same compound came in with an inhibition at 1000 µg/mL against α-glucosidase [2] of 21.7 ± 0.58%.
As to `CC(=CCCC(C)C1CCC2(C)C3CCC4=C(C)C(=O)CCC4C3C(=O)CC12C)C(=O)OC1OC(COC2OC(CO)C(O)C(O)C2O)C(O)C(O)C1O` (centres unmarked) [Compound 14, Siraitic acid II C], the “Specific Binding Factors Mean ± SD (n = 3)” value at α-glucosidase [1] was 17.26% and 17.26 ± 3.14%. On α-glucosidase [2], the inhibition at 1000 µg/mL was 72 ± 2.18%. Moreover, the half-inhibitory concentration (IC50) at α-glucosidase [2] (read-out: IC50) was found to be 430 ± 13.3 µM.
With `CC(=O)OC(C)(C)CCC(=O)[C@](C)(O)[C@H]1[C@H](O)C[C@@]2(C)[C@@H]3CC=C4[C@@H](C[C@H](O)C(=O)C4(C)C)[C@]3(C)C(=O)C[C@]12C` [Compound 16, 23,24-dihydrocucurbitacin B], the “Specific Binding Factors Mean ± SD (n = 3)” value on α-glucosidase [1] is reported as 4.70 ± 0.76%. Besides, at 1000 µg/mL the inhibition against α-glucosidase [2] was 27.5 ± 3.8%.
Regarding `CC(=O)OC(C)(C)CCC(=O)[C@](C)(O)C1C(O)C[C@@]2(C)[C@@H]3CC=C4[C@@H](CC(=O)[C@@H](O)C4(C)C)[C@]3(C)C(=O)C[C@]12C` (some centres unmarked) [Compound 17, Dihydroisocucurbitacin B-25-acetate], on α-glucosidase [1], the “Specific Binding Factors Mean ± SD (n = 3)” value is on record as 2.28 ± 0.44%. On α-glucosidase [2], the inhibition at 1000 µg/mL is 23.7 ± 0.33%.
Regarding Cucurbitacin B [Compound 15], the “Specific Binding Factors Mean ± SD (n = 3)” value on α-glucosidase [1] is 7.98% and 7.98 ± 1.11%. The “Inhibition (%)” value at α-glucosidase [2] (concentration of 1.0 mg/mL compound) is given as 50.59 ± 0.98%.

What is called IC50 is the concentration needed to halve the response being measured. Usually inhibition stands for the relative decrease from the control value, in per cent. Low values mean a response near the control, high ones a response far below the control.
